According to patent US10881679B2, “Application of a phillyrin/phillygeninin composition in preparing a medicine or health care product for alleviating or/and treating viral diseases, and medicine or health care product for treating viral diseases” (priority 2014, dated 2021):
Marks after values point to notes of the source that are not given here.

How the values were obtained:
Vero cells = test: Cytotoxicity test (MTT) on Vero cells; type: cell-based, African green monkey; details: 72 h
Protocol: Cytotoxicity test: the drugs were diluted according to the concentrations shown in table 1-1 for determination of cytotoxicity. […] In addition, 6 wells were set up as normal control group (without drugs) while another 6 pores as blank control group (medium only). Cells were grown in a 37° C. incubator under 5% CO2. […] After 72 h, 20 μL MTT solution (5 mg·mL^−1) was added into each well to continue incubation for 4 h. The culture medium in each well was sucked and discarded, 100 μL DMSO was added to each well. Then the culture was shaken for 5 min, measured OD value at 492 nm to calculate the cell survival ratio. The cell survival ratio was analyzed using a Probit regression model in SPSS 18.0 statistical software, and the maximal nontoxic concentration (TC0) and median toxic concentration (TC50) of drugs against Vero cells were calculated.

influenza virus [1] = test: Impact on virus-induced cytopathic effect in Vero cells (MTT): influenza virus; type: cell-based; details: influenza virus 100TCID50, Vero, 72 h; drug g/L (Table 1-2): phillyrin 0.01, Phillygeninin 0.02, compositions A, B 0.01, Ribavirin 0.70, oseltamivir phosphate 0.30
parainfluenza virus [2] = test: Impact on virus-induced cytopathic effect in Vero cells (MTT): parainfluenza virus; type: cell-based; details: parainfluenza virus 100TCID50, Vero, 72 h; drug g/L as Table 1-2
[3] = test system: Coxsackievirus A16 (CoxA16); test: Impact on virus-induced cytopathic effect in Vero cells (MTT): CoxA16; type: cell-based; details: CoxA16 100TCID50, Vero, 72 h; drug g/L as Table 1-2
[4] = test system: respiratory syncytial virus (RSV); test: Impact on virus-induced cytopathic effect in Vero cells (MTT): RSV; type: cell-based; details: RSV 100TCID50, Vero, 72 h; drug g/L as Table 1-2
[5] = test system: Herpes zoster simplex viruses type I (HSV-I); test: Impact on virus-induced cytopathic effect in Vero cells (MTT): HSV-I; type: cell-based; details: HSV-I 100TCID50, Vero, 72 h; drug g/L as Table 1-2
adenovirus (ADV) = test: Impact on virus-induced cytopathic effect in Vero cells (MTT): ADV; type: cell-based; details: ADV 100TCID50, Vero, 72 h; drug g/L as Table 1-2
enterovirus EV71 = test: Impact on virus-induced cytopathic effect in Vero cells (MTT): EV71; type: cell-based; details: EV71 100TCID50, Vero, 72 h; drug g/L as Table 1-2
[6] = test system: Coxsackie virus B3 (CVB3); test: Impact on virus-induced cytopathic effect in Vero cells (MTT): CVB3; type: cell-based; details: CVB3 100TCID50, Vero, 72 h; drug g/L as Table 1-2
influenza virus [7] = type: in vivo, Kunming mice; details: 19.5 mg/kg/d i.g. 5 days
parainfluenza virus [8] = type: in vivo, Kunming mice; details: 19.5 mg/kg/d i.g. 5 days
influenza virus [9] = type: in vivo, Kunming mice; details: 19.5 mg/kg/d i.g. 5 days; remark: listed apart in the source
parainfluenza virus [10] = type: in vivo, Kunming mice; details: 19.5 mg/kg/d i.g. 5 days; remark: listed apart in the source

CCOC(=O)C1=C[C@@H](OC(CC)CC)[C@H](NC(C)=O)[C@@H](N)C1 [oseltamivir phosphate]
half toxic concentration (TC50) (Vero cells): 0.832 g/L
maximal non-toxic concentration (TC0) (Vero cells): 0.28 g/L
antiviral effective rate (ER %) (influenza virus [1]): 81.76** %
antiviral effective rate (ER %) (parainfluenza virus [2]): 94.52** %
antiviral effective rate (ER %) [3]: 2.95%
antiviral effective rate (ER %) [4]: 37.60%
antiviral effective rate (ER %) [5]: 66.56** %
antiviral effective rate (ER %) (adenovirus (ADV)): 10.31%
antiviral effective rate (ER %) (enterovirus EV71): 51.86%
antiviral effective rate (ER %) [6]: 1.64%
Lung index (influenza virus [7]): 1.178 ± 0.066
Lung index inhibition rate (influenza virus [7]): 19.84
Lung index (parainfluenza virus [8]): 1.243 ± 0.054
Lung index inhibition rate (parainfluenza virus [8]): 21.85
Hemagglutination titer (InX) (influenza virus [9]): 20.50 ± 1.123
Inhibition rate (%) of hemagglutination titer (influenza virus [9]): 36.73%
Hemagglutination titer (InX) (parainfluenza virus [10]): 22.05
Inhibition rate (%) of hemagglutination titer (parainfluenza virus [10]): 33.40%
